Earlier results as cited in patent US9457321B2, “Furanone containing polymer compound with bacteria-adhesion properties” (Stellenbosch University, priority 2012, dated 2016).

Tested on: P. aeruginosa, S. aureus, E. coli and Enterococci

SMILES: CC1=C(O)C(=O)C(C)O1 (stereo not shown) [DMHF, 2,5-dimethyl-4-hydroxy-3(2H)-furanone]
- antimicrobial efficacy: exceptional antimicrobial efficacy
